Results from article PMC5578373, “Inhibitory Kappa B Kinase α (IKKα) Inhibitors That Recapitulate Their Selectivity in Cells against Isoform-Related Biomarkers” (Journal of Medicinal Chemistry, 2017).
Like-named read-outs stand apart in the source and are kept apart here.

Assays:
IKKα = molecular target: T1, IKKα (Homo sapiens, UniProt O15111); test: DELFIA kinase assay, IKKα; assay type: biochemical; conditions: for Ki: apparent Ki (Cheng–Prusoff), 40 μM ATP, three independent experiments, read-out: IKKα (Ki ± SEM μM); for IKKα inhibitory activity: SAR discussion
T1 construct: purchased Millipore, Dundee, UK
T1 sequence (O15111 1-745): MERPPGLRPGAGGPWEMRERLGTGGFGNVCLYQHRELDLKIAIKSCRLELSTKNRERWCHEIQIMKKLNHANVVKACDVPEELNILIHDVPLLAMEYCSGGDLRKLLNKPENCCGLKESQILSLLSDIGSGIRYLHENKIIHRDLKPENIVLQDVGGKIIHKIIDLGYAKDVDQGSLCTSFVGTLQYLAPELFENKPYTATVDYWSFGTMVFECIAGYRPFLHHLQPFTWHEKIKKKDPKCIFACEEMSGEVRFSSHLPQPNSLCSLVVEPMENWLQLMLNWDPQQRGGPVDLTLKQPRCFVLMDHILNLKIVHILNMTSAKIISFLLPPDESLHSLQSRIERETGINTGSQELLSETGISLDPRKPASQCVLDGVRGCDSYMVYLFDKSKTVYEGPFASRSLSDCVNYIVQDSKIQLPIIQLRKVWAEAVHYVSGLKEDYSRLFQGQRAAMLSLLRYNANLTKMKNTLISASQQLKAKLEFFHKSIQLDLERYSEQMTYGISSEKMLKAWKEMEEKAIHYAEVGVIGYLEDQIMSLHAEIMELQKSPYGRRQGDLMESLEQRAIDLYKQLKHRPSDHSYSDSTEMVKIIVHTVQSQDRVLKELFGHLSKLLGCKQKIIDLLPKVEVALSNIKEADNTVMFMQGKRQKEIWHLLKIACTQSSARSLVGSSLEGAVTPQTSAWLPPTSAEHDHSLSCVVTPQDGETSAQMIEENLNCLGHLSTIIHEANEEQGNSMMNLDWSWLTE

IKKβ = molecular target: T2, IKKβ (Homo sapiens, UniProt O14920); test: DELFIA kinase assay, IKKβ; assay type: biochemical
T2 construct: purchased Millipore, Dundee, UK
T2 sequence (O14920 1-756): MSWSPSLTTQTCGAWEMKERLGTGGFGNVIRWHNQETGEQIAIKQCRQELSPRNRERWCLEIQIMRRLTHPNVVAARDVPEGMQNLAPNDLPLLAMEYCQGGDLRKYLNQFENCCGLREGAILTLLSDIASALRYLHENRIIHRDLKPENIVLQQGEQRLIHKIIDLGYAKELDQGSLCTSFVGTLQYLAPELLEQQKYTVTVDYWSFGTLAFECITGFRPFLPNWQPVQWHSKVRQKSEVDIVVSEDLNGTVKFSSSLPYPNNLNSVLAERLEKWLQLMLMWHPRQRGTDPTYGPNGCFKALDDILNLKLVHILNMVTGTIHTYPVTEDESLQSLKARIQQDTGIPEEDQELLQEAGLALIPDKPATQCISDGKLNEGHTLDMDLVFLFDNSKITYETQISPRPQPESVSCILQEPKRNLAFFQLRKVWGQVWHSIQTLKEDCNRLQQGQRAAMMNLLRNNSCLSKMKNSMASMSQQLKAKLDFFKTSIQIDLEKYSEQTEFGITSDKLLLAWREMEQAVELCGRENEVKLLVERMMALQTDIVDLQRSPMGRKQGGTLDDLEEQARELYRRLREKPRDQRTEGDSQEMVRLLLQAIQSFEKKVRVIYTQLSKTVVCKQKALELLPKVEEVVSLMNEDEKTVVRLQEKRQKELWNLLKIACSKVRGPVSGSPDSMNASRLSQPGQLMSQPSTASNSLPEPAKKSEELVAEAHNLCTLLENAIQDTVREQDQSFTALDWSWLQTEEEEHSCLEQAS
Source text: To identify hits that could be developed to exploit the differences between the two isoforms, we screened our in-house compound library compiled of fragments designed to target the common hinge-binding motif found in protein kinases. Using a DELFIA kinase assay kit with minor modifications[29] to measure IKKα and IKKβ inhibitory activity, we identified 2-amino-4-chloro-5-cyanopyrrolo[2,3-d]pyrimidine 4 as our primary hit (Table 1). On the basis of the assumption that the 2-aminopyrrolo[2,3-d]pyrimidine core of compound 4 was binding at the hinge of IKKα, we varied substitution at the 4-position widely. Differences in bulk and polar functionality were incorporated to exploit the greater flexibility in the IKKα ATP binding site and the position of the Asn28 side chain at the back of the pocket.
IKKα and IKKβ inhibitory activity was determined using a dissociation enhanced ligand fluorescent immunoassay (DELFIA) based on the protocol of HTScan IKKβ kinase assay (Cell Signaling Technology, USA).
Recombinant IKKα or IKKβ, 37 nM (Millipore, Dundee, UK), was incubated with IκB-α (Ser32) (New England Biolabs, Hitchin, UK), biotinylated peptide substrate (0.375 μM), and 40 μM ATP in assay buffer (40 mM Tris-HCl (pH 7.5), 20 mM MgCl2, EDTA 1 mM, DTT 2 mM, and BSA 0.01 mg/mL) in a V-well 96-well plate in the presence and absence of test compound. The assay plate was incubated for 60 min at 30 °C, after which the kinase reaction was quenched by the addition of 50 mM EDTA, pH 8. The resulting mixture was transferred to a streptavidin-coated 96-well plate (PerkinElmer, Beaconsfield, UK) and incubated for 1 h at 30 °C to immobilize the substrate peptide. After three washes with wash buffer (0.01 M phosphate buffered saline (PBS), 0.05% Tween-20, pH 7.4), a primary antibody against the phosphorylated substrate (phospho-IκB-α) (Ser32/36) (5A5) mouse mAb (New England Biolabs, Hitchin, UK) (1:1000 dilution with 1% bovine serum albumin (BSA) in wash buffer) was added and incubated at 37 °C for 2 h.
After a further three washes, a secondary europiated antibody (Eu–N1 labeled antimouse IgG, (PerkinElmer, Beaconsfield, UK) diluted 1:500 in 1% BSA/wash buffer) was added and incubated at 30 °C for 30 min. After a further five washes, DELFIA enhancement solution (PerkinElmer, Beaconsfield UK) was added and allowed to incubate for 10 min at room temperature, protected from light, to facilitate the chemifluorescent detection. The relative fluorescence units (RFU) signal were measured on a Wallac Victor 1420 multilabel counter (PerkinElmer, Beaconsfield, UK) in time-resolved fluorescence mode. The counter was set at an excitation wavelength of 340 nm with a 400 μs delay before detecting emitted light at 615 nm. The apparent Ki of the phosphorylated substrate was calculated for each compound using the Cheng–Prusoff equation.

[1] = apparent Ki (Cheng–Prusoff), 40 μM ATP, three independent experiments, read-out: IKKβ (Ki ± SEM μM)

| Compound | IKKα inhibitory activity (IKKα) | other results |
| --- | --- | --- |
| 2-Amino-4-(3-hydroxypropylamino)-7H-pyrrolo[2,3-d]pyrimidine-5-carbonitrile [Compound 23] |  | Ki (IKKα): 12.1 ± 6.3 µM; Ki (IKKβ; [1]): > 30 µM |
| 2-Amino-4-(cyclohexylmethylamino)-7H-pyrrolo[2,3-d]pyrimidine-5-carbonitrile [Compound 10] |  | Ki (IKKα): > 30 µM; Ki (IKKβ; [1]): > 30 µM |
| 4-((2-Amino-5-cyano-7H-pyrrolo[2,3-d]pyrimidin-4-yl)amino)benzoic acid [Compound 12] |  | Ki (IKKα): > 30 µM; Ki (IKKβ; [1]): > 30 µM |
| N#Cc1c[nH]c2nc(N)nc(N[C@@H]3CC[C@@H](O)[C@H]3O)c12 (relative stereo) [Compound 30, 2-Amino-4-((1RS,2SR,3RS)-2,3-dihydroxycyclopentylamino)-7H-pyrrolo[2,3-d]pyrimidine-5-carbonitrile] | active and selective |  |
| N#Cc1c[nH]c2nc(N)nc(N3CCC(O)C3)c12 (stereo in doubt) [Compound 25, (R)-2-Amino-4-(3-hydroxypyrrolidin-1-yl)-7H-pyrrolo[2,3-d]pyrimidine-5-carbonitrile] | active and selective against IKKα |  |
| N#Cc1c[nH]c2nc(N)nc(NC3CCCCC3)c12 [Compound 9, 2-Amino-4-(cyclohexylamino)-7H-pyrrolo[2,3-d]pyrimidine-5-carbonitrile] |  | increase in potency against IKKα (IKKα; from methylamine analogue 7 to cyclohexylamine derivative 9): 5 fold |
| N#Cc1c[nH]c2nc(N)nc(NCc3ccccc3)c12 [Compound 14, 2-Amino-4-(benzylamino)-7H-pyrrolo[2,3-d]pyrimidine-5-carbonitrile] |  | Ki (IKKβ; supplementary CSV, read-out: IKKbeta Ki (?M)): 19 µM |
| N#Cc1c[nH]c2nc(N)nc(N3CCCCC3)c12 [Compound 17, 2-Amino-4-(piperidin-1-yl)-7H-pyrrolo[2,3-d]pyrimidine-5-carbonitrile] | active |  |
| N#Cc1c[nH]c2nc(N)nc(N3CCC(S(N)(=O)=O)CC3)c12 [Compound 18, 1-(2-Amino-5-cyano-7H-pyrrolo[2,3-d]pyrimidin-4-yl)piperidine-4-sulfonamide] | active |  |
| N#Cc1c[nH]c2nc(N)nc(N3CC[C@@H](O)C3)c12 [Compound 24, (R)-2-Amino-4-(3-hydroxypyrrolidin-1-yl)-7H-pyrrolo[2,3-d]pyrimidine-5-carbonitrile] | inactive |  |
| N#Cc1c[nH]c2nc(N)nc(N[C@H]3CC[C@H](O)CC3)c12 [Compound 28, 2-Amino-4-((1R,4R)-4-hydroxycyclohexylamino)-7H-pyrrolo[2,3-d]pyrimidine-5-carbonitrile] | active and selective against IKKα |  |
| N#Cc1c[nH]c2nc(N)nc(N(CCO)C3CCCCC3)c12 [Compound 29, 2-Amino-4-(cyclohexyl(2-hydroxyethyl)amino)-7H-pyrrolo[2,3-d]pyrimidine-5-carbonitrile] | inactive |  |
| N#Cc1c[nH]c2nc(N)nc(-c3cccc(C(N)=O)c3)c12 [Compound 55, 3-(2-Amino-5-cyano-7H-pyrrolo[2,3-d]pyrimdin-4-yl)benzamide] | inactive | IKKβ inhibitory activity (IKKβ; SAR discussion): inactive |
| Nc1nc(Cl)c2cc[nH]c2n1 [Compound 63] | inactive |  |
| Nc1nc(-c2ccc(S(N)(=O)=O)cc2)c2cc[nH]c2n1 [Compound 64, 4-(2-Amino-7H-pyrrol[2,3-d]pyrimidin-4-yl)benzenesulfonamide] |  | reduction of activity against IKKα (IKKα; relative to 48 (absence of 5-cyano group)): more than 30 fold |
| Nc1nc(NC2CCCCC2)c2c(C(F)(F)F)c[nH]c2n1 [Compound 70, N^4-Cyclohexyl-5-(trifluoromethyl)-7H-pyrrolo[2,3-d]pyrimidine-2,4-diamine] | attenuated all IKKα inhibitory activity |  |
| NC(=O)c1c[nH]c2nc(N)nc(N[C@H]3CC[C@H](O)CC3)c12 [Compound 71, 2-Amino-4-((1R,4R)-4-hydroxycyclohexylamino)-7H-pyrrolo[2,3-d]pyrimidine-5-carboxamide] | attenuated all IKKα inhibitory activity |  |
